# Assays:
# Assay type in all cases: cell-based
# [1] = system: Staphylococcus aureus NCTC 6571; experiment: Lethal photosensitization of S. aureus by photosensitizer-gold nanoparticle mixtures (Examples 2-8, Table 2), viable counting; conditions: for effect of diluting the gold nanoparticles on killing of S. aureus: 2 nm gold nanoparticles; for enhancement of lethal photosensitization compared with TB in the absence of nanogold: 15 nm nanogold
# Description: Gold nanoparticles of approximately 15 nm in diameter (batches NN1 and NN2 above) were mixed with an equal volume of aqueous toluidine blue O (TB) and left at room temperature for 15 minutes. TB was used at a final concentration of 1, 5, 10, 20 or 50 μM.
# 100 μl of the TB-gold mixture was added to 100 μl of a suspension of Staphylococcus aureus NCTC 6571 in phosphate buffered saline (PBS) (adjusted to an optical density of 0.05), and samples were irradiated with a fluorescent white light (28 W) for 10 minutes. S. aureus+TB only, and S. aureus+PBS, without photosensitizer or nanogold were used as controls. The final concentration of nanogold used was 1×10^15 particles/ml.
# After irradiation, the numbers of surviving bacteria were enumerated by viable counting.
# The method of Example 2 was repeated using gold nanoparticles of 2 nm diameter (British Biocell International). The final concentration of nanogold used was 4×10^13 particles/ml. TB was used at a final concentration of 10, 20 or 50 μM.
# Experiments were performed as for Example 3, with the following modifications: Prior to mixing with the photosensitizer, the gold nanoparticles were either left undiluted, or diluted 1 in 10 or 1 in 100 in sterile, distilled water. The nanoparticles were then added to TB (final concentration 20 μM).
# The samples were then illuminated for 30 seconds using a fibre optic white light source (Schott KL200). The surviving bacteria were enumerated by viable counting as before.
# Example 4 was repeated using methylene blue (MB; 20 μM) as the photosensitizer.
# Example 5 was repeated using 2 nm gold nanoparticles (British Biocell International).
# Example 6 was repeated using tin chlorin e6 (SnCe6; 20 μg/ml) as the photosensitizer. The illumination time was 10 minutes. […]
# [2] = system: Staphylococcus aureus NCTC 6571; experiment: as above; conditions: Example 2
# [3] = system: Staphylococcus aureus NCTC 6571; experiment: Lethal photosensitization of S. aureus using a different TBO-tiopronin-gold nanoparticle conjugate (Examples 6-7, Table 4); conditions: white light 30 mins; free TBO control
# [4] = system: Staphylococcus aureus NCTC 6571; experiment: Lethal photosensitization of S. aureus using TBO-tiopronin-gold nanoparticle conjugate (Examples 2-5, Table 3); conditions: Example 4, any length of time
# [5] = system: Staphylococcus aureus NCTC 6571; experiment: Lethal photosensitization of S. aureus by toluidine blue/gold nanoparticle mixture (Example 1), viable counting
# Description: Gold nanoparticles (2.0 nm diameter; British Biocell International) in water (15×10^13 particles per ml) were mixed with an equal volume of an aqueous solution of toluidine blue O (40 μM) and left at room temperature for 15 minutes. 100 μl of the gold-TB solution was added to 100 μl of a suspension of Staphylococcus aureus NCTC 6571 in phosphate buffered saline (PBS) and this was irradiated with white light from an 18 W fluorescent white lamp for 10 minutes. Controls consisted of: • (i) TB (final concentration=10 μM) and bacteria, irradiated for the same period of time, • (ii) nanogold (diluted 1:1 with water) and bacteria, irradiated for the same period of time, • (iii) bacteria without TB or nanogold, not irradiated (“control”).
# After irradiation, the number of surviving bacteria was determined by viable counting.
compound,measurement,setting,value
"CN(C)c1ccc2nc3ccc(=[N+](C)C)cc-3sc2c1 [Methylene blue, methylene blue]",effectiveness of combination against Staphylococcus aureus,[1]; 20 mM with 2 nm gold nanoparticles at 4×10^11 to 4×10^13 particles/ml,particularly effective
same,effectiveness of combination against Staphylococcus aureus,[1]; 20 mM with 15 nm gold nanoparticles at 1×10^13 to 1×10^15 particles/ml,particularly effective
same,Result (% kill class),"[1]; Example 5, photosensitiser 20 mM, gold nanoparticles 15 nm, 1 × 10^13 particles/ml, fibre optic white light 30 seconds",**** (99-100% kill)
same,Result (% kill class),"[1]; Example 5, photosensitiser 20 mM, gold nanoparticles 15 nm, 1 × 10^14 particles/ml, fibre optic white light 30 seconds",**** (99-100% kill)
same,Result (% kill class),"[1]; Example 5, photosensitiser 20 mM, gold nanoparticles 15 nm, 1 × 10^15 particles/ml, fibre optic white light 30 seconds",**** (99-100% kill)
same,effect of diluting the gold nanoparticles on killing of S. aureus,"[1]; Example 6, MB 20 μM",enhanced the killing of S. aureus slightly
same,Result (% kill class),"[1]; Example 6, photosensitiser 20 mM, gold nanoparticles 2 nm, 4 × 10^11 particles/ml, fibre optic white light 30 seconds",**** (99-100% kill)
same,Result (% kill class),"[1]; Example 6, photosensitiser 20 mM, gold nanoparticles 2 nm, 4 × 10^12 particles/ml, fibre optic white light 30 seconds",**** (99-100% kill)
same,Result (% kill class),"[1]; Example 6, photosensitiser 20 mM, gold nanoparticles 2 nm, 4 × 10^13 particles/ml, fibre optic white light 30 seconds",**** (99-100% kill)
"C=CC1=C(C)C2=CC3=NC(=C(CC(=O)[O-])C4=NC(=C(C)C4=C([O-])[O-])C=c4[n-]c(c(C)c4CC)=CC1=N2)C(CCC(=O)[O-])C3C.[H+].[Sn+4] (stereo not shown) [Tin chlorine6, tin chlorin e6]",effectiveness of combination against Staphylococcus aureus,[1]; 20 mg/ml with 2 nm gold nanoparticles at 4×10^11 particles/ml,particularly effective
same,effect of diluting the gold nanoparticles on killing of S. aureus,"[1]; Example 7, SnCe6 20 μg/ml, illumination 10 minutes",enhanced the killing of S. aureus
same,Result (% kill class),"[1]; Example 7, photosensitiser 20 m/ml, gold nanoparticles 2 nm, 4 × 10^11 particles/ml, illumination 10 minutes",*** (95-99% kill)
same,Result (% kill class),"[1]; Example 7, photosensitiser 20 m/ml, gold nanoparticles 2 nm, 4 × 10^12 particles/ml, illumination 10 minutes",** (90-95% kill)
same,Result (% kill class),"[1]; Example 7, photosensitiser 20 m/ml, gold nanoparticles 2 nm, 4 × 10^13 particles/ml, illumination 10 minutes",— (less than 50% kill)
"Cc1cc2nc3ccc(N(C)C)cc3[s+]c2cc1N.[Cl-] [Toluidine blue, toluidine blue O]",effectiveness of combination against Staphylococcus aureus,[1]; 20 mM with 2 nm gold nanoparticles at 4×10^13 particles/ml,particularly effective
same,enhancement of lethal photosensitization,"[1]; 2 nm nanogold particles, 10 μM or 50 μM TB",not when either 10 μM or 50 μM TB was used
same,enhancement of lethal photosensitization,"[1]; 2 nm nanogold particles, 20 μM TB",enhancement of lethal photosensitization was evident
same,enhancement of lethal photosensitization compared with TB in the absence of nanogold,[1]; TB 1 μM,little enhancement
same,enhancement of lethal photosensitization compared with TB in the absence of nanogold,"[1]; TB 5, 10 and 20 μM",enhancement was evident
same,enhancement of lethal photosensitization compared with TB in the absence of nanogold,[1]; TB 10 and 20 μM,Enhancement was greatest
same,effectiveness of combination against Staphylococcus aureus,[1]; 20 to 50 mM with 15 nm gold nanoparticles at 1×10^14 to 1×10^15 particles/ml,particularly effective
same,Result (% kill class),"[1]; Example 2, photosensitiser 1 mM, gold nanoparticles 15 nm, 1 × 10^15 particles/ml, fluorescent white light (28 W) 10 minutes",— (less than 50% kill)
same,Result (% kill class),"[1]; Example 2, photosensitiser 5 mM, gold nanoparticles 15 nm, 1 × 10^15 particles/ml, fluorescent white light (28 W) 10 minutes",* (50-90% kill)
same,Result (% kill class),"[1]; Example 2, photosensitiser 20 mM, gold nanoparticles 15 nm, 1 × 10^15 particles/ml, fluorescent white light (28 W) 10 minutes",**** (99-100% kill)
same,Result (% kill class),"[1]; Example 2, photosensitiser 50 mM, gold nanoparticles 15 nm, 1 × 10^15 particles/ml, fluorescent white light (28 W) 10 minutes",**** (99-100% kill)
same,enhancement of lethal photosensitization,"[1]; Example 2, with nanogold, TB 20 and 50 μM",enhancement was greatest
same,Result (% kill class),"[1]; Example 3, photosensitiser 10 mM, gold nanoparticles 2 nm, 4 × 10^13 particles/ml, fluorescent white light (28 W) 10 minutes",* (50-90% kill)
same,Result (% kill class),"[1]; Example 3, photosensitiser 20 mM, gold nanoparticles 2 nm, 4 × 10^13 particles/ml, fluorescent white light (28 W) 10 minutes",**** (99-100% kill)
same,Result (% kill class),"[1]; Example 3, photosensitiser 50 mM, gold nanoparticles 2 nm, 4 × 10^13 particles/ml, fluorescent white light (28 W) 10 minutes",* (50-90% kill)
same,enhancement compared with undiluted nanogold,"[1]; Example 4, TB 20 μM, nanoparticles diluted 1 in 10, white light 30 seconds",greater enhancement
same,Result (% kill class),"[1]; Example 4, photosensitiser 20 mM, gold nanoparticles 15 nm, 1 × 10^14 particles/ml, fibre optic white light 30 seconds",**** (99-100% kill)
same,Result (% kill class),"[1]; Example 4, photosensitiser 20 mM, gold nanoparticles 15 nm, 1 × 10^15 particles/ml, fibre optic white light 30 seconds",*** (95-99% kill)
same,Result (% kill class),"[2]; photosensitiser 100 mM, gold nanoparticles 15 nm, 1 × 10^15 particles/ml, fluorescent white light (28 W) 10 minutes",** (90-95% kill)
same,enhancement of lethal photosensitization,"[2]; with nanogold, TB 10 or 100 μM",little enhancement
same,kills of the organism (in words),[3],significant kills of the organism only at a concentration of 2.0 μm
same,effect when irradiated with white light,[4],no effect
same,% Kill,"[5]; 18 W fluorescent white lamp 10 minutes, TB final 10 μM, 2.0 nm gold nanoparticles",93.7%
same,kill of the bacterial suspensions,"[5]; preliminary experiments, 30 minutes light exposure",total kills
same,S. aureus (cfu/ml),"[5]; surviving bacteria after 18 W fluorescent white lamp 10 minutes, TB final 10 μM, 2.0 nm gold nanoparticles",8570000 cfu/ml
nile blue sulphate,effectiveness of combination against Staphylococcus aureus,[1]; 20 to 50 mM with 2 nm gold nanoparticles at 4×10^13 particles/ml,particularly effective
same,Result (% kill class),"[1]; Example 8, photosensitiser 10 mM, gold nanoparticles 2 nm, 4 × 10^13 particles/ml, illuminated 30 minutes",*** (95-99% kill)
same,Result (% kill class),"[1]; Example 8, photosensitiser 20 mM, gold nanoparticles 2 nm, 4 × 10^13 particles/ml, illuminated 30 minutes",**** (99-100% kill)
same,Result (% kill class),"[1]; Example 8, photosensitiser 50 mM, gold nanoparticles 2 nm, 4 × 10^13 particles/ml, illuminated 30 minutes",**** (99-100% kill)

# Reference: patent US20090317436A1, “COMPUTER DEVICES AND ACCESSORIES” (priority 2006, published 2009)
